Assay results published in patent publication US8263592B2, “Equilibrative nucleoside transporter ENT1 inhibitors” (Janssen Pharmaceutica NV, priority 2007, dated 2012).
Where a name gives a salt, the structure may show the parent alone.

Legend:
human ENT1 transporter = target: T1, human ENT1 transporter (Homo sapiens, UniProt Q99808); test: hENT1-NBMPR-ERYTH binding assay ([3H]NBMPR, human erythrocytes); conditions: [3H]NBMPR 1 nM, washed human red blood cells 1:200, 30 minutes at room temperature; pIC50=-log(IC50); read-out: pIC50 values for ENT1 transporter inhibition (converted)
T1 construct: with washed red blood cells diluted 1:200 in assay buffer; from tissue; host or cells: human erythrocytes (washed red blood cells from whole blood)
T1 sequence (Q99808 1-456): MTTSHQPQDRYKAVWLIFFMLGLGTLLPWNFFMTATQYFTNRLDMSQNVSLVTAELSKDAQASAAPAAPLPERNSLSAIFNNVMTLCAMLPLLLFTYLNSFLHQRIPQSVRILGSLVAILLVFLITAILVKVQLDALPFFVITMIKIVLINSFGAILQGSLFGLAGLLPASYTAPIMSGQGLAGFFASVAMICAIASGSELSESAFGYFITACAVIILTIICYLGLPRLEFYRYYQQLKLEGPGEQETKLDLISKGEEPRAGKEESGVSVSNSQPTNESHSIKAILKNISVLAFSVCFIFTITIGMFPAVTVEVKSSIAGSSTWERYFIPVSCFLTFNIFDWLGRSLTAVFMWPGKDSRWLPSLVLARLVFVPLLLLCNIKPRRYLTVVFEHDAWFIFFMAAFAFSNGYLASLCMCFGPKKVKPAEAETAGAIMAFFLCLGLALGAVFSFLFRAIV
Experimental: D. Pharmacological Data D.1hENT1-NBMPR-ERYTH Assay
The affinity of compounds to the human ENT1 transporter was determined in a binding assay using [^3H]NBMPR (19.9 Ci/mmol) from Moravek Biochemicals (Brea, Calif.). Erythrocytes were isolated from freshly isolated EDTA anti-coagulated human blood. 4 ml human whole blood was diluted in 11 ml wash buffer (20 mM MOPS, 130 mM NaCl, pH 7.4) and centrifuged at 800 g for 5 minutes. Erythrocytes were washed two times with wash buffer by centrifugation at 800 g for 5 minutes and then resuspended in wash buffer to the original whole blood volume and stored at −80° C. Binding experiments were performed at apparent binding equilibrium (30 minutes incubation at room temperature) with washed red blood cells diluted 1:200 in assay buffer (20 mM Tris, 140 mM NaCl, […], 2 mM MgCl2, 0.1 mM EDTA, 5 mM Glucose, pH 7.4) and 1 nM of radioligand. Test compounds were pre-incubated with the red blood cells for 30 minutes at room temperature. Non-specific binding was estimated in the presence of 1 μM Draflazine. The incubation was stopped by rapid filtration using Unifilter-96 GF/C filter plates on a 96-well PerkinElmer Filtermate harvester followed by three washes with ice-cold assay buffer. Bound radioactivity was determined by liquid scintillation counting (Topcount, (PerkinElmer)).

Row | Compound | melting point [°C] | IC50 (human ENT1 transporter) [nM]
1 | Cc1c(O)ccc2c1OC1(CCN(CCNC(=O)c3c(Cl)cccc3Cl)CC1)CC2=O (as salt: hydrochloric acid salt) [Compound 91] | 187.06 | 
2 | Nc1cc2c(cc1Cl)C(=O)NC1(CCN(CCNC(=O)c3c(Cl)cccc3Cl)CC1)O2 [Compound 1] | 245.39 | 89.1
3 | COCNc1cc2c(cc1Cl)C(=O)NC1(CCN(CCNC(=O)c3c(Cl)cccc3Cl)CC1)O2 [Compound 2] |  | 6.46
4 | CC(C)Nc1ccc2c(c1)OC1(CCN(CCNC(=O)c3c(Cl)cccc3Cl)CC1)NC2=O [Compound 3] |  | 4.27
5 | Nc1cc2c(cc1Cl)CCC1(CCN(CCNC(=O)c3c(Cl)cccc3Cl)CC1)O2 [Compound 10] | 191.14 | 18.6
6 | CC(C)(C)OC(=O)N1CCC(Oc2cc3c(cc2Cl)C(=O)NC2(CCN(CCNC(=O)c4c(Cl)cccc4Cl)CC2)O3)CC1 [Compound 22] | 172.85 | 0.224
7 | O=C1NC2(CCN(CCNC(=O)c3c(Cl)cccc3Cl)CC2)Oc2cc(OC3CCNCC3)c(Cl)cc21 [Compound 23] |  | 10.2
8 | CN1CCC(Oc2cc3c(cc2Cl)C(=O)NC2(CCN(CCNC(=O)c4c(Cl)cccc4Cl)CC2)O3)CC1 [Compound 26] |  | 11
9 | CC(=O)N1CCC(Oc2cc3c(cc2Cl)C(=O)NC2(CCN(CCNC(=O)c4c(Cl)cccc4Cl)CC2)O3)CC1 [Compound 27] | 146.87 | 0.776
10 | CNCCCNc1cc2c(cc1Cl)C(=O)NC1(CCN(CCNC(=O)c3c(Cl)cccc3Cl)CC1)O2 [Compound 43] |  | 89.1
11 | O=C1CC2(CCN(CCNC(=O)c3c(Cl)cccc3Cl)CC2)Oc2ccccc21 [Compound 45] | 197.7 to 198.6 | 417
12 | Cc1c(O)ccc2c1OC1(CCN(CCNC(=O)c3c(Cl)cccc3Cl)CC1)CC2=O [Compound 91] |  | 2.88
13 | O=C1CC2(CCN(CCNC(=O)c3c(Cl)cccc3Cl)CC2)Oc2cc(O)ccc21 [Compound 93] | 209.19 | 120
14 | CC(=O)N1CCC(Nc2cc3c(cc2Cl)C(=O)NC2(CCN(CCNC(=O)c4c(Cl)cccc4Cl)CC2)O3)CC1 [Compound 96] | 238.27 | 0.776
15 | CCCCNc1ccc2c(c1)C(=O)CC1(CCN(CCNC(=O)c3c(Cl)cccc3Cl)CC1)O2 [Compound 97] | 153.71 to 156.93 | 12
16 | CC(=O)N1CCC(Oc2cc3c(cc2Cl)C=CC2(CCN(CCNC(=O)c4c(Cl)cccc4Cl)CC2)O3)CC1 [Compound 108] |  | 0.0447
17 | CC(=O)N1CCC(Oc2cc3c(cc2Cl)CCC2(CCN(CCNC(=O)c4c(Cl)cccc4Cl)CC2)O3)CC1 [Compound 117] |  | 0.589

The remaining lines, values ahead:

Row | melting point [°C] | IC50 (human ENT1 transporter) [nM] | Compound
18 | 157.06 |  | COCCCNc1cc2c(cc1C)C(=O)CC1(CCN(CCNC(=O)c3c(Cl)cccc3Cl)CC1)O2 (as salt: oxalate) [Compound 133]
19 | 191.24 |  | COC(=O)[C@H]1CC[C@H](Oc2cc3c(cc2C)C(=O)CC2(CCN(CCNC(=O)c4c(Cl)cccc4Cl)CC2)O3)CC1 (as salt: oxalate) [Compound 199]
20 |  | 0.776 | Cc1cc2c(cc1NC1CCCC1)OC1(CCN(CCNC(=O)c3c(Cl)cccc3Cl)CC1)CC2=O [Compound 127]
21 | 236.63 | 9.77 | Nc1ccc2c(c1Cl)OC1(CCN(CCNC(=O)c3c(Cl)cccc3Cl)CC1)CC2=O [Compound 130]
22 |  | 1.82 | COCCCNc1cc2c(cc1C)C(=O)CC1(CCN(CCNC(=O)c3c(Cl)cccc3Cl)CC1)O2 [Compound 133]
23 |  | 3.72 | Cc1cc2c(cc1NCCCO)OC1(CCN(CCNC(=O)c3c(Cl)cccc3Cl)CC1)CC2=O [Compound 141]
24 | 201.61 to 204.2 | 22.9 | Cc1cccc(C)c1C(=O)NCCN1CCC2(CC1)NC(=O)c1cc(Cl)c(OC(C)C)cc1O2 [Compound 151]
25 | 135.95 | 2.57 | Cc1cc(OC2CCCC2)c2c(c1)C(=O)CC1(CCN(CCNC(=O)c3c(Cl)cccc3Cl)CC1)O2 [Compound 189]
26 |  | 0.343 | COC(=O)[C@H]1CC[C@H](Oc2cc3c(cc2C)C(=O)CC2(CCN(CCNC(=O)c4c(Cl)cccc4Cl)CC2)O3)CC1 [Compound 199]
27 | 245.16 | 107 | O=C1NC2(CCN(CCNC(=O)c3c(Cl)cccc3Cl)CC2)Oc2c1cc(Cl)cc2N1CCOCC1 [Compound 205]
28 |  | 1.51 | O=C1CC2(CCN(CCNC(=O)c3c(Cl)cccc3Cl)CC2)Oc2c1ccc(NC1CCCC1)c2Cl [Compound 208]
29 |  | 0.531 | COC(=O)[C@H]1CC[C@@H](Oc2cc3c(cc2C)C(=O)CC2(CCN(CCNC(=O)c4c(Cl)cccc4Cl)CC2)O3)CC1 [Compound 222]
30 | 238.02 | 3.8 | O=C1NC2(CCN(CCNC(=O)c3c(Cl)cccc3Cl)CC2)Oc2c(NC3CCCC3)cc(Cl)cc21 [Compound 223]
31 |  | 1.53 | CNc1cc2c(cc1Cl)CCC1(CCN(CCNC(=O)c3c(Cl)cccc3Cl)CC1)O2 [Compound 239]
